Columns and labels:
[1] = test system: SHIP1 (full length SHIP1, PPAC, PAC2); assay: In vitro phosphatase assay; format: biochemical; conditions: full length SHIP1, 293T derived PPAC, E. coli derived PPAC, and PAC2; 50 μM IP4
Procedure: In vitro phosphatase assay. The phosphatase assay was performed in 96-well microtiter plates with 10 ng of enzyme/well in a total volume of 25 μL in 20 mM Tris-HCl, pH 7.4, 150 mM NaCl, 0.05% Tween-20, 10 mM MgCl2 as described (Ong et al., 2007). Enzyme was incubated with or compound I-1 (dissolved in ethanol) for 10 minutes at 23° C., before the addition of 50 μM of inositol-1,3,4,5-tetrakisphosphate (IP4) (Echelon Bioscience Inc., Salt Lake City, Utah). The reaction was allowed to proceed for 10 minutes at 37° C. and the amount of inorganic phosphate released was assessed by the addition of Malachite
Green reagent and absorbance measurement at 650 nm. For enzyme kinetic determination, different concentrations of IP4 (0-300 μM) were used and the reactions were stopped at different time points. Initial velocities were calculated, and Kcat and KM were determined using GraphPad 6 software.

[2] = test system: colitis in IL10−/− mice; assay: Mouse colitis model (IL10 knock-out); format: in vivo; conditions: colitic IL10−/− mice
Procedure: Mouse Colitis Model. Colitis was induced in 6-8 week old BALB/cIL10−/−mice by administering the colonic contents of conventional C57BL/6 mice diluted 1:10 in PBS by oral gavage. Mouse weights and fecal consistencies were monitored and colitis allowed to develop for 6 weeks. Ethanol (Vehicle) and compound I-1 (3 mg/kg) was diluted in cage drinking water and dexamethasone (0.4 mg/kg) was administered every 2 days by oral gavage for 3 weeks. At the end of the dosing period, proximal, medial and distal colon sections were collected for paraffin embedding or stored in RNALater (Invitrogen, Mississauga, ON) for RNA extraction. Slides were prepared, stained with hematoxylin and eosin, and mounted by the UBC Department of Pathology and Laboratory Medicine Histochemistry Facility. Specimens were assigned pathological scores by two, independent, blinded investigators according to a method described by Madsen et al (Madsen et al., 2001). In brief, colonic inflammation was graded using a 4-point scale, scoring 0-3 for each of submucosal edema, immune cell infiltration, goblet cell ablation, and integrity of the epithelial layer. For analysis of mRNA expression, colon sections were homogenized and total RNA extracted as described above and analyzed by real time PCR using gene specific primers for IL17, CCL2, and GAPDH (normalization control).
To show in vivo anti-inflammatory effect of the compounds of the present disclosure, exemplary compound I-1 was administered to IL-10 knock-out mouse model of colitis (Keubler 2015). IL10 knock-out mice develop colitis when colonized with normal gut flora because IL10 is needed to temper the host immune response to intestinal commensal bacteria (Keubler 2015, Kuhn 1993). Colitis was initiated in IL10−/−mice by inoculating them with the freshly isolated colon contents of normal, specific pathogen free mice and allowed inflammation to develop for 6 weeks (Sydora 2003). Mice were then treated for 3 weeks with vehicle, 2 mg/kg compound I-1, or 0.4 mg/kg dexamethasone (anti-inflammatory steroidal drug used as positive control) prior to colon tissue collection for analyses. Hematoxylin and eosin stained sections were prepared from the proximal, mid and distal colons of mice, as well as from mice not inoculated with flora (no colitis group) (FIG. 8A).

[3] = molecular target: T1, PAC1 (Mus musculus, UniProt Q9ES52); assay: Small angle X-ray scattering of PAC1; conditions: 190 μM PAC1 with 570 μM compound
T1 construct: PAC1 and PAC2 consists of phosphatase and C2 domain (residues aa 402-861 and aa 402-857 respectively); HMT-tag (His6-MBP-TEV site) (N); made in house; host or cells: E. coli
T1 sequence (Q9ES52 402-861): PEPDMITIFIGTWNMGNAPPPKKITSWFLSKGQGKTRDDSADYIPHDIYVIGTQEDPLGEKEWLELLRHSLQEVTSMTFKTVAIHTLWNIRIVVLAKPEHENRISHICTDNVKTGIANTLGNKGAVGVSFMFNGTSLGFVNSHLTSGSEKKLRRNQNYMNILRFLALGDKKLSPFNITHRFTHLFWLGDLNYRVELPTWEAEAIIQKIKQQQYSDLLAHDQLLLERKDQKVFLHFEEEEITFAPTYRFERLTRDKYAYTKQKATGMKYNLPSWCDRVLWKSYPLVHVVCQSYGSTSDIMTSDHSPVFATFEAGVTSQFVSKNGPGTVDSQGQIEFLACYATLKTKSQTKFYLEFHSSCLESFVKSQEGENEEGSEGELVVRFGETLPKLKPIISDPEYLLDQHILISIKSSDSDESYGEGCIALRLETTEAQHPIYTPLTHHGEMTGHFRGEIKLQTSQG
Procedure: Small angle X-ray scattering. PAC1 samples in 190 μM in 50 mM TrisHCl (pH7.4) 150 mM NaCl, 1 mM TCEP and 2% EtOH with and without 570 μM compound I-1 ([…]). Dynamic Light Scattering (DLS) data for PAC1 and PAC1-compound I-1 complexes were collected prior to SAXS data collection to confirm that all the samples are highly pure and suitable for data collection. The data collection was performed on a 3-pinhole camera (S-MAX3000; Rigaku Americas, The Woodlands, Tex.) equipped with a Rigaku MicroMaxp002 microfocus sealed tube (Cu Kα radiation at 1.54 Å) and a Confocal Max-Flux (CMF) optics system operating at 40 W (Rigaku). Scattering data were recorded using a 200 mm multiwire two-dimensional detector. The data for both samples and buffer were collected for 3 h for each sample within the range of 0.008≤s≤0.26 Å-1 and processed according to the method previously described, where s=4π sin θ/λ (Patel et al., 2011, Patel et al., 2010, Patel et al., 2012). The Normalized Spatial Discrepancy (NSD) of the non-liganded and liganded PAC1 models were 0.6 and 1.0 respectively.

[4] = 3 weeks treatment, RT-qPCR relative to GAPDH

Q: Cc1cc(O)cc2c1C1(C)CCC3C(C)(C)CCCC3(C)C1C2 (stereo not drawn) [Compound I-1] was tested. Which “activation of phosphatase activity” value [1] did it give?
A: Its value is “could be activated”.

Q: And the “reduction of histological and molecular markers of colon inflammation, compared with dexamethasone” value [2]?
A: Its value is “as effective as dexamethasone”.

Q: What about the “pathology scores of colon sections” value ([2]; 3 weeks treatment, 2 mg/kg compound I-1 or 0.4 mg/kg dexamethasone, vs vehicle) of the same molecule?
A: Its value is “significantly lower pathology scores”.

Q: What about the “CCL2 mRNA in colon” value [2, 4] of the same molecule?
A: Its value is “significantly reduced”.

Q: And the “IL17 mRNA in colon” value [2, 4]?
A: The value was “significantly reduced”.

Q: And the “overall conformation of PAC1 on binding (SAXS)” value [3]?
A: The value was “results in a change in its overall conformation”.

— patent publication US20230174571A1, “METHOD OF TREATING SHIP1-MEDIATED DISEASES USING PELOROL DERIVATIVES” (Zebrapeutics Inc., priority 2020, published 2023)
